# According to paper PMC12374030, “Hydroxyalkyne–Bithiophene Derivatives: Synthesis and Antileishmanial Activity” (Chemical Biology & Drug Design, 2025):
# *1 amine or outer side, *2 acyl side, *3 side chain or, on linkers, in order; H or OH if unused. Where a SMILES comes first, the peptide text is derived from it. Bridges are numbered along the chain shown (N, C = ends). Roman numbers before positions name the chains, in order. [ ]: non-standard residue; d: D form. Actinocin(9to1) = Cc1c2oc3c(C)ccc(C(=O)[*:1])c3nc-2c(C(=O)[*:2])c(N)c1=O; NMeV = CN[C@H](C(=O)O)C(C)C; Sar = CNCC(=O)O
# How the values were obtained:
# [1] = system: L. amazonensis promastigotes; assay: Cell cycle (PI-RNAse A, flow cytometry); type: cell-based, Leishmania amazonensis; details: positive control, 40 μM, 24 h
# Method: Promastigotes at 1 × 10^6 parasites mL^−1 treated with BT‐1 for 24 h were fixed in 70% cold methanol in PBS at 4°C for 2 h. Afterward, the parasites were washed in PBS, 10 μg mL^−1 PI‐RNAse A was added, and the samples were incubated at 37°C for 45 min. The data acquisition and analysis were performed using a FACSCalibur flow cytometer (BD Biosciences, Franklin Lakes, NJ, USA) equipped with CellQuest software. A total of 10,000 events were acquired in the region that corresponded to the parasites. As a positive control, 40 μM miltefosine was used. The percentages of cells in each stage of the cell cycle were determined based on the intensity of the PI fluorescence, which is directly proportional to the DNA content.
# [2] = Cytotoxicity assay in macrophages (MTT); type: cell-based; details: mouse, J774A.1 macrophages, pH 7.2
# Method: L. amazonensis MHOM/BR/75/Josefa strain was originally isolated from a human case of CL by Dr. Cesar A. Cuba at the University of Brasilia, Brazil (Saraiva et al. [1983]; Cuba et al. [1985]). Promastigote forms of this strain were maintained axenically in Warren's medium (brain–heart infusion plus hemin and folic acid; pH 7.2) supplemented with 10% heat‐inactivated FBS and maintained at 25°C. J774A.1 macrophages (obtained from the Cell Bank of Rio de Janeiro, RJ, Brazil) were maintained in RPMI‐1640 medium (pH 7.2), supplemented with sodium bicarbonate, L‐glutamine, 10% FBS, and streptomycin and penicillin at 37°C in a 5% CO2 atmosphere.
# Cytotoxicity was evaluated in the J774A.1 macrophages. Macrophages (5 × 10^5 cells mL^−1) were cultured in 96‐well microplates containing RPMI‐1640 medium supplemented with 10% FBS. The plates were incubated at 37°C in a 5% CO2 atmosphere for confluent growth of the cells. After 24 h, the compounds were added to each well at increasing concentrations (31.25–1000 μM) and incubated for 48 h at 37°C in a 5% CO2 atmosphere. The cytotoxicity was evaluated by MTT (2 mg mL^−1), as previously described (Mosmann [1983]). Absorbance was read in a microplate spectrophotometer (PowerWave XS; BioTek, […], VT, USA) at 570 nm.
# [3] = system: L. amazonensis promastigote forms; assay: Antiproliferative assay (XTT); type: cell-based, Leishmania amazonensis; details: for IC50: Leishmania amazonensis, 72 h, 25°C, XTT, read-out: L. amazonensis (promastigotes) IC50; for Selectivity index (SI): ratio between the CC50 (J774A.1 macrophages) and IC50 (promastigotes)
# Method: L. amazonensis MHOM/BR/75/Josefa strain was originally isolated from a human case of CL by Dr. […]. Cuba at the University of Brasilia, Brazil (Saraiva et al. [1983]; Cuba et al. [1985]). […] The activity against promastigotes was evaluated by XTT (0.5 mg mL^-1), as previously described (Meshulam et al. [1995]). Absorbance was read in a microplate spectrophotometer (PowerWave XS; BioTek, Winooski, VT, USA) at 450 nm.
# [4] = system: L. amazonensis promastigotes; assay: Cell size (FSC-H, flow cytometry); type: cell-based, Leishmania amazonensis; set-up: reduction in cell size: dose or concentration left out as unconfirmed; details: positive control, 24 h
# Method: Promastigotes at 1 × 10^6 parasites mL^−1 treated with BT‐1 for 24 h were washed twice and resuspended in phosphate‐buffered saline (PBS), then analyzed using a FACSCalibur flow cytometer (BD Biosciences, Franklin Lakes, NJ, USA) equipped with CellQuest software. As a positive control, […] actinomycin D was used. A total of 10,000 events were acquired in the region that corresponded to the parasites. Histograms were generated for each sample, where the forward light scatter (FSC‐H) represents the cell volume (Lazarin‐Bidóia et al. [2013]).
# [5] = system: L. amazonensis promastigotes; assay: Mitochondrial membrane potential (Rh123, flow cytometry); type: cell-based, Leishmania amazonensis; details: 24 h
# Method: Promastigotes at 1 × 10^6 parasites mL^−1 treated with BT‐1 for 24 h were incubated with 5 μg mL^−1 Rh123, a fluorescent probe that accumulates in mitochondria, for 15 min (Menna‐Barreto, Corrêa, et al. [2009]; Menna‐Barreto, Goncalves, et al. [2009]). As a positive control, 100 μM CCCP was used. The data acquisition and analysis were performed using a FACSCalibur flow cytometer (BD Biosciences, Franklin Lakes, NJ, USA) equipped with CellQuest software. A total of 10,000 events were acquired in the region corresponding to the parasites.
# [6] = system: L. amazonensis promastigotes; assay: Cell membrane integrity (PI, flow cytometry); type: cell-based, Leishmania amazonensis; details: positive control, 40 μM, 5 min
# Method: Promastigotes at 1 × 10^6 parasites mL^−1 treated with BT‐1 for 24 h were incubated with 0.2 μg mL^−1 PI for 10 min. As a positive control, 40 μM digitonin was used. The data acquisition and analysis were performed using a FACSCalibur flow cytometer (BD Biosciences, Franklin Lakes, NJ, USA) equipped with CellQuest software. A total of 10,000 events were acquired in the region that corresponded to the parasites. Alterations in PI fluorescence were quantified as the percentage increase in fluorescence compared with the untreated parasites (Lazarin‐Bidóia et al. [2013]).
# [7] = system: L. amazonensis promastigotes; assay: Reactive oxygen species production (H2DCFDA); type: cell-based, Leishmania amazonensis; details: positive control, 50 μM
# Method: Promastigotes at 1 × 10^6 parasites mL^−1 treated with BT‐1 for 24 h were incubated with 10 μM H2DCFDA in the dark for 45 min. As a positive control, 50 μM H2O2 was used. The fluorescence was determined by oxidation of H2DCFDA to the fluorescent product, 2′‐7ʹ dichlorofluorescein (DCF), which was measured in a Victor X3 spectrofluorimeter (PerkinElmer, Waltham, MA, USA) at λex of 488 nm and λem of 530 nm (Shukla et al. [2012]).
# [8] = system: L. amazonensis promastigotes; assay: Lipid peroxidation assay (DPPP); type: cell-based, Leishmania amazonensis; details: positive control, 50 μM
# Method: Promastigotes at 1 × 10^6 parasites mL^−1 treated with BT‐1 for 24 h were incubated with 50 μM DPPP for 15 min at 22°C. As a positive control, 50 μM H2O2 was used. The fluorescence was determined in a Victor X3 spectrofluorimeter (PerkinElmer, Waltham, MA, USA) at λex of 355 nm and λem of 460 nm. DPPP is essentially nonfluorescent until it is oxidized to a phosphine oxide (DPPP‐O) by peroxides (Okimoto et al. [2000]).
SMILES,IC50 [3],CC50 at 48 h [2],Selectivity index (SI) [3],also measured
"CCCCCCCCCCCCCCCCOP(=O)([O-])OCC[N+](C)(C)C [Miltefosine, miltefosine, reference compound]",–,–,–,increase of cells in sub-G0 phase compared with the untreated control [1]: 12.33 fold
"Cc1c2oc3c(C)ccc(C(=O)N[C@@H]4C(=O)N[C@H](C(C)C)C(=O)N5CCC[C@H]5C(=O)N(C)CC(=O)N(C)[C@@H](C(C)C)C(=O)O[C@@H]4C)c3nc-2c(C(=O)N[C@@H]2C(=O)N[C@H](C(C)C)C(=O)N3CCC[C@H]3C(=O)N(C)CC(=O)N(C)[C@@H](C(C)C)C(=O)O[C@@H]2C)c(N)c1=O [Actinomycin D, reference compound] (I: T[dV]P[Sar][NMeV] / II: T[dV]P[Sar][NMeV]; ester I:1-I:C, II:1-II:C; linker I:N-II:N via Actinocin(9to1))",–,–,–,reduction in cell size [4]: 2.05 fold
"N#CC(C#N)=NNc1cccc(Cl)c1 [CCCP, carbonyl cyanide m‐chlorophenylhydrazone, reference compound]",–,–,–,"Mitochondrial potential: Average (Median) ([5]; positive control 100 μM, Rh123 fluorescence): 6.38; reduction in the mitochondrial membrane potential ([5]; positive control, 100 μM): 342.8 fold"
"C[C@@H]1CC[C@@]2(OC1)O[C@H]1[C@@H](O)[C@H]3[C@@H]4CC[C@H]5C[C@@H](O[C@@H]6O[C@H](CO)[C@H](O[C@@H]7O[C@H](CO)[C@@H](O)[C@H](O[C@@H]8OC[C@@H](O)[C@H](O)[C@H]8O)[C@H]7O[C@@H]7O[C@H](CO)[C@H](O)[C@H](O[C@@H]8O[C@H](CO)[C@@H](O)[C@H](O)[C@H]8O)[C@H]7O)[C@H](O)[C@H]6O)[C@H](O)C[C@]5(C)[C@H]4CC[C@]3(C)[C@H]1[C@@H]2C [Digitonin, digitonin, reference compound]",–,–,–,increase of PI-stained cells [6]: 3.10 fold
CC(C)(O)C#Cc1ccc(-c2ccc(C=NC3CCCCC3)s2)s1 [Compound 3c],40.1 ± 1.1 µM,238.5 ± 1.9 µM,5.95,–
"OO [Compound H2O2, reference compound]",–,–,–,increase in the production of ROS [7]: 3.5 fold; increase in lipoperoxidation [8]: 3.6 fold

# Second part, led by results:
IC50 [3],SMILES,CC50 at 48 h [2],Selectivity index (SI) [3],also measured
25.1 ± 0.8 µM,"O=Cc1ccc(-c2ccc(C#CCCO)s2)s1 [Compound 2, 5′‐(4‐hydroxy‐but‐1‐ynyl)‐[2,2′]bithiophenyl‐5‐carbaldehyde]",198 ± 3.9 µM,7.90,–
41.4 ± 0.6 µM,NC(=S)NN=Cc1ccc(-c2ccc(C#CCCO)s2)s1 [Compound 2d],224 ± 4.9 µM,5.42,–
94 ± 4.2 µM,"CC(C)(O)C#Cc1ccc(-c2ccc(C=O)s2)s1 [Compound 3, 5′‐(3‐hydroxy‐3‐methyl‐but‐1‐ynyl)‐[2,2′]bithiophenyl‐5‐carbaldehyde]",283 ± 6.7 µM,3.00,–
49.5 ± 3.1 µM,CC(C)N=Cc1ccc(-c2ccc(C#CC(C)(C)O)s2)s1 [Compound 3a],281 ± 6.2 µM,5.68,–
55.3 ± 5.1 µM,CCCCN=Cc1ccc(-c2ccc(C#CC(C)(C)O)s2)s1 [Compound 3b],296 ± 4.1 µM,5.34,–
44.1 ± 2 µM,CC(C)N=Cc1ccc(-c2ccc(C#CCCO)s2)s1 [Compound 2a],289 ± 6.5 µM,6.56,–
48.5 ± 4.2 µM,CCCCN=Cc1ccc(-c2ccc(C#CCCO)s2)s1 [Compound 2b],274 ± 5.2 µM,5.65,–
51.2 ± 1.5 µM,OCCC#Cc1ccc(-c2ccc(C=NC3CCCCC3)s2)s1 [Compound 2c],271 ± 2.8 µM,5.28,–
39.5 ± 5.1 µM,CC(C)(O)C#Cc1ccc(-c2ccc(/C=N/NC(N)=S)s2)s1 [Compound 3d],220 ± 3.8 µM,5.56,–
